Among the data in patent US7910584B2, “3-spiroindolin-2-one derivatives, preparation and therapeutic use thereof” (Sanofi-Aventis, priority 2004, dated 2011) are IC50 values, retold here.

Each structure is given as a SMILES string.

For this assay, the target named is T1, recombinant human vasopressin V2 receptors (Homo sapiens, UniProt P30518).
T1 construct: expressed in transfected cells; host or cells: CHO cell line (plasma membranes)
The assay can be described thus: In vitro binding assay, [3H]-AVP displacement on plasma membranes. As to conditions: membranes from tissues or CHO cell line expressing recombinant human V2 receptors; 3.5 nM [H3]-AVP; 45 minutes at 25° C.; read-out: IC50 (concentration of product that inhibits 50% of the specific binding). The method, then:
They were in particular tested with regard to their effects.
The affinity of the compounds of the invention for vasopressin V2 receptors was measured in in vitro binding assays, as described in J. Pharmacol. Exp. Ther., (2002), 300, pp. 1122-1130.
Plasma membranes (approximately 20 μg/ml) originating from tissues or the CHO cell line expressing recombinant human vasopressin V2 receptors are incubated for 45 minutes at 25° C. in 200 μl of TRIS-HCl buffer (50 mM; pH 8.2) containing 2 mM of MgCl2, 1 mM of EDTA, 0.1% of BSA, 1 mg/ml of bacitracin and 3.5 nM of [H^3]-AVP. The reaction is stopped by filtration and washing over GF/B filters. The nonspecific binding is determined in the presence of 1 μM of AVP. The compounds of the invention, dissolved beforehand at the concentration of 10^−2 M in DMSO, are tested in a dilution range.
For each concentration, the results are expressed as percentage inhibition of specific binding. An IC50 (concentration of product that inhibits 50% of the specific binding) is determined for each of the products using the “RS1 binding” program (BBN Domain, Cambridge, Mass.).

T1 sequence (P30518 whole entry): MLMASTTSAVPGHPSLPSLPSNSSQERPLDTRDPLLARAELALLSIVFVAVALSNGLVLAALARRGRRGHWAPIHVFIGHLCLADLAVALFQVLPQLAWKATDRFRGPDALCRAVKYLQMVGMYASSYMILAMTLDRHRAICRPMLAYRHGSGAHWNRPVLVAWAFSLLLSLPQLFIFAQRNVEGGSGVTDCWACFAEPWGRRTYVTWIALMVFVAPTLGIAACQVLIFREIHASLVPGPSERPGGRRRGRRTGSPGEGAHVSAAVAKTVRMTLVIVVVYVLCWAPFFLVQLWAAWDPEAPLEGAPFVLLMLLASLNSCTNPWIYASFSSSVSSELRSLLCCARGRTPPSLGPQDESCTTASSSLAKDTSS

`CCOc1ccc2c(c1)C1(CCC(OCCN3CCOCC3=O)CC1)C(=O)N2S(=O)(=O)c1ccc(C(=O)NC(C)(C)C)cc1OC` (stereo not shown): the IC50 is around 7.3 nM.
